Assay results from US20260285888A1, “HETEROCYCLIC COMPOUND AND USE THEREOF” (OTSUKA PHARMACEUTICAL CO., LTD., priority 2023, published 2026).

Assay: Study for confirmation of conversion to brexpiprazole in a buffer (stability of the evaluation compounds)
Assay type: physicochemical
Details: for Concentration of brexpiprazole formed / Concentration of evaluation compound decreased: in buffer, average of duplicate; for Concentration of brexpiprazole formed: 60-minute reaction sample; for Concentration of evaluation compound decreased: decrease in 60-minute vs 0-minute reaction sample; for stability in the buffer / conversion to brexpiprazole (in words): Tris-hydrochloric acid buffer pH 7.5, 37° C., 60 minutes, 1 μmol/L
Protocol: The conversion from the evaluation compounds to brexpiprazole in a buffer (i.e., the stability of the evaluation compounds) was evaluated.
The Example 1 compound was dissolved in acetonitrile/water (1:1, v/v) to 10 mmol/L and further diluted with acetonitrile/water (1:1, v/v) to 100 μmol/L for use.
The other Example compounds and the Reference Example 5 compound to Reference Example 7 compound were each dissolved in DMSO to 10 mmol/L and further diluted with acetonitrile to 100 μmol/L for use, except for the following compounds.
The compounds of Examples 52, 95, 96, 117, and 130 (EX 52, EX 95, EX 96, EX 117, and EX 130) were dissolved in acetonitrile/water (8:2, v/v) to 10 mmol/L and further diluted with acetonitrile to 100 μmol/L for use.
The compound of Example 97 (EX 97) was dissolved in acetonitrile/water (8:2, v/v) to 10 mmol/L and further diluted with acetonitrile/water (8:2, v/v) to 100 μmol/L for use.
The compounds of Examples 15 and 116 (EX 15 and EX 116) were dissolved in DMSO to 1 mmol/L and further diluted with acetonitrile to 100 μmol/L for use.
The reaction was conducted by preparing each reaction solution such that the final concentration of each component was as follows. The test was conducted in duplicate.
For the compounds of Examples 1 to 8, 10 to 19, 26 to 27, 37, 50, 87 to 89, 91, 116, 121, 123, 150, and 151 (EX 1 to EX 8, EX 10 to EX 19, EX 26 to EX 27, EX 37, EX 50, EX 87 to EX 89, EX 91, EX 116, EX 121, EX 123, EX 150, and EX 151), and the compounds of Reference Examples 5 to 7 (REX 5 to REX 7), the reaction solution without the evaluation compound (198 μl) was pre-incubated at 37° C. for 3 minutes, and then each of the evaluation compound solutions (2 μl) was added and stirred; thereafter, the reaction was started at 37° C. At 0 minutes or 60 minutes after the start of the reaction, the reaction was stopped by adding and stirring a reaction stop solution (1000 μl) composed of acetonitrile/isopropanol (4:1, v/v) containing internal standard substances. However, the 0-minute reaction sample (198 μl) was prepared by adding the evaluation compound (2 μl) after adding the reaction stop solution (1000 μl). The samples after stopping the reaction were used as the measurement samples. Calibration curve samples with the same composition were prepared (final concentrations of the evaluation compounds and brexpiprazole: 0.01, 0.1, and 1 μmol/L, with the proviso that for the evaluation compounds only, the 0-minute reaction samples were also used as calibration curve samples for 1 μmol/L).
For the compounds of Examples 24 to 25, 28 to 29, 32 to 36, 40 to 49, 51 to 60, 62 to 64, 66 to 77, 80 to 86, 90, 92 to 111, 113, 115, 117 to 120, 122, 124 to 130, 132 to 147, and 152 to 160 (EX 24 to EX 25, EX 28 to EX 29, EX 32 to EX 36, EX 40 to EX 49, EX 51 to EX 60, EX 62 to EX 64, EX 66 to EX 77, EX 80 to EX 86, EX 90, EX 92 to EX 111, EX 113, EX 115, EX 117 to EX 120, EX 122, EX 124 to EX 130, EX 132 to EX 147, and EX 152 to EX 160), the reaction solution without the evaluation compound (148.5 μl) was pre-incubated at 37° C. for 3 minutes, and then each of the evaluation compound solutions (1.5 μl) was added and stirred; thereafter, the reaction was started at 37° C. At 0 minutes or 60 minutes after the start of the reaction, the reaction was stopped by adding and stirring a reaction stop solution (600 μl) composed of acetonitrile/isopropanol (4:1, v/v) containing internal standard substances. However, the 0-minute reaction sample (148.5 μl) was prepared by adding the evaluation compound (1.5 μl) after adding the reaction stop solution (600 μl). The samples after stopping the reaction were used as the measurement samples. Calibration curve samples with the same composition were prepared (final concentrations of the evaluation compounds and brexpiprazole: 0.01, 0.1, and 1 μmol/L, with the proviso that for the evaluation compounds only, the 0-minute reaction samples were also used as calibration curve samples for 1 μmol/L). […]

| SMILES | Concentration of brexpiprazole formed [nM] | Concentration of evaluation compound decreased [nM] | stability in the buffer / conversion to brexpiprazole (in words) |
| --- | --- | --- | --- |
| CCC(C)(C)C(=O)OCOP(=O)([O-])OC[N+]1(CCCCOc2ccc3ccc(=O)[nH]c3c2)CCN(c2cccc3sccc23)CC1 [EX 122, (4-(benzo[b]thiophen-4-yl)-1-(4-((2-oxo-1,2-dihydroquinolin-7-yl)oxy)butyl)piperazin-1-ium-1-yl)methyl (((2,2-dimethylbutanoyl)oxy)methyl) phosphate] | 0 | 50 | – |
| CCCCCCCC(=O)OCOP(=O)([O-])OC[N+]1(CCCCOc2ccc3ccc(=O)[nH]c3c2)CCN(c2cccc3sccc23)CC1 [EX 27, (4-(benzo[b]thiophen-4-yl)-1-(4-((2-oxo-1,2-dihydroquinolin-7-yl)oxy)butyl)piperazin-1-ium-1-yl)methyl ((octanoyloxy)methyl) phosphate] | 0 | 0 | – |
| CCCCCCCCOP(=O)([O-])OC[N+]1(CCCCOc2ccc3ccc(=O)[nH]c3c2)CCN(c2cccc3sccc23)CC1 [EX 37, (4-(benzo[b]thiophen-4-yl)-1-(4-((2-oxo-1,2-dihydroquinolin-7-yl)oxy)butyl)piperazin-1-ium-1-yl)methyl octyl phosphate] | 0 | 60 | – |
| O=c1ccc2ccc(OCCCC[N+]3(COP(=O)([O-])OC[C@H]4CC[C@H](CO)CC4)CCN(c4cccc5sccc45)CC3)cc2[nH]1 [EX 86, (4-(benzo[b]thiophen-4-yl)-1-(4-((2-oxo-1,2-dihydroquinolin-7-yl)oxy)butyl)piperazin-1-ium-1-yl)methyl (((1r,4r)-4-(hydroxymethyl)cyclohexyl)methyl) phosphate] | 0 | 50 | – |
| CC(C)(C)OP(=O)([O-])OC[N+]1(CCCCOc2ccc3ccc(=O)[nH]c3c2)CCN(c2cccc3sccc23)CC1 [EX 4, (4-(benzo[b]thiophen-4-yl)-1-(4-((2-oxo-1,2-dihydroquinolin-7-yl)oxy)butyl)piperazin-1-ium-1-yl)methyl tert-butyl phosphate] | 0 | 20 | – |
| O=c1ccc2ccc(OCCCC[N+]3(COP(=O)([O-])OCC#CCCl)CCN(c4cccc5sccc45)CC3)cc2[nH]1 [EX 63, (4-(benzo[b]thiophen-4-yl)-1-(4-((2-oxo-1,2-dihydroquinolin-7-yl)oxy)butyl)piperazin-1-ium-1-yl)methyl (4-chlorobut-2-yn-1-yl) phosphate] | 0 | 20 | – |
| CC1(C)OCC(COC(=O)CCCCC(=O)OCOP(=O)([O-])OC[N+]2(CCCCOc3ccc4ccc(=O)[nH]c4c3)CCN(c3cccc4sccc34)CC2)CO1 [EX 75, (4-(benzo[b]thiophen-4-yl)-1-(4-((2-oxo-1,2-dihydroquinolin-7-yl)oxy)butyl)piperazin-1-ium-1-yl)methyl (((6-((2,2-dimethyl-1.3-dioxan-5-yl)methoxy)-6-oxohexanoyl)oxy)methyl) phosphate] | 0 | 70 | – |
| CCCC(=O)OCOP(=O)([O-])OC[N+]1(CCCCOc2ccc3ccc(=O)[nH]c3c2)CCN(c2cccc3sccc23)CC1 [EX 121] | 0 | 90 | – |
| CC(C)OP(=O)([O-])OC[N+]1(CCCCOc2ccc3ccc(=O)[nH]c3c2)CCN(c2cccc3sccc23)CC1 [EX 5, (4-(benzo[b]thiophen-4-yl)-1-(4-((2-oxo-1,2-dihydroquinolin-7-yl)oxy)butyl)piperazin-1-ium-1-yl)methyl isopropyl phosphate] | 0 | 70 | – |
| CCC(=O)OC[N+]1(CCCCOc2ccc3ccc(=O)[nH]c3c2)CCN(c2cccc3sccc23)CC1 [Reference Example 5, reference compound] | – | – | clearly degraded to brexpiprazole |
| O=C(OCCCCCCOP(=O)([O-])OC[N+]1(CCCCOc2ccc3ccc(=O)[nH]c3c2)CCN(c2cccc3sccc23)CC1)c1ccc([N+](=O)[O-])cc1 [EX 85, (4-(benzo[b]thiophen-4-yl)-1-(4-((2-oxo-1,2-dihydroquinolin-7-yl)oxy)butyl)piperazin-1-ium-1-yl)methyl (6-((4-nitrobenzoyl)oxy)hexyl) phosphate] | 0 | 40 | – |
| CCCCOP(=O)([O-])OC[N+]1(CCCCOc2ccc3ccc(=O)[nH]c3c2)CCN(c2cccc3sccc23)CC1 [EX 89, (4-(benzo[b]thiophen-4-yl)-1-(4-((2-oxo-1,2-dihydroquinolin-7-yl)oxy)butyl)piperazin-1-ium-1-yl)methyl butyl phosphate] | 0 | -70 | – |
| O=C(OCOP(=O)([O-])OC[N+]1(CCCCOc2ccc3ccc(=O)[nH]c3c2)CCN(c2cccc3sccc23)CC1)C12CC3CC(CC(C3)C1)C2 [EX 124, (((1s,3s)-adamantane-1-carbonyl)oxy)methyl ((4-(benzo[b]thiophen-4-yl)-1-(4-((2-oxo-1,2-dihydroquinolin-7-yl)oxy)butyl)piperazin-1-ium-1-yl)methyl) phosphate] | 0 | 100 | – |
| CCCCCC(=O)OC[N+]1(CCCCOc2ccc3ccc(=O)[nH]c3c2)CCN(c2cccc3sccc23)CC1 [Reference Example 6, reference compound] | – | – | clearly degraded to brexpiprazole |
| COP(=O)([O-])OC[N+]1(CCCCOc2ccc3ccc(=O)[nH]c3c2)CCN(c2cccc3sccc23)CC1 [EX 87, (4-(benzo[b]thiophen-4-yl)-1-(4-((2-oxo-1,2-dihydroquinolin-7-yl)oxy)butyl)piperazin-1-ium-1-yl)methyl methyl phosphate] | 0 | 0 | – |
| CCC(=O)OC[N+]1(CCCCOc2ccc3ccc(=O)[nH]c3c2)CCN(c2cccc3sccc23)CC1.[I-] [REX 5, 4-(Benzo[b]thiophen-4-yl)-1-(4-((2-oxo-1,2-dihydroquinolin-7-yl)oxy)butyl)-1-((propionyloxy)methyl)piperazin-1-ium iodide, reference compound] | 260 | 200 | – |
